Where two headings read alike, the source gives them in different places.
Assays:
[1] = molecular target: human recombinant CK2 holoenzyme (Homo sapiens, UniProt P68400); experiment: CE-based CK2 activity assay (substrate peptide RRRDDDSDDD); type: biochemical
[2] = test system: MCF7 NucLight Green cells; experiment: EdU cell proliferation assay; type: cell-based, human; settings: for proliferating cells relative to control: 24 h incubation
LDH-5 from rabbit muscle = molecular target: T1, LDH-5 from rabbit muscle (Oryctolagus cuniculus, UniProt P13491); experiment: LDH assay (NADH absorption at 340 nm); type: biochemical; settings: 10 µM compound; data not shown
T1 construct: LDH-5 from rabbit muscle; purchased Roche Diagnostics GmbH, Mannheim, Germany; host or cells: rabbit muscle
Description: A reaction of aldehyde groups appearing at position 4´and 5´ of the phenylspirodrimanes such as acetoxystachybotrydial acetate (Figure 1) with amino acids in proteins has been reported before. The ATP dependency of the IC50 value as shown above is a clear indicator that the interaction between the compound and CK2 seems to be specific and is not due to any non-specific reaction of the dialdehydes of phenylspirodrimanes with amines in a protein. Finally, to rule out this aspect, the inhibitory effect of acetoxystachybotrydial acetate on lactate dehydrogenase (LDH) was determined. Even at a concentration of 10 µM, no inhibition of LDH by acetoxystachybotrydial acetate was observed, indicating no non-specific interaction of acetoxystachybotrydial acetate by coupling to protein amines (data not shown).
For the determination of enzymatic activity of lactate dehydrogenase (LDH), 0.25 µg of LDH-5 from rabbit muscle (Roche Diagnostics GmbH, Mannheim, Germany) was incubated in phosphate buffered saline (PBS) containing 0.25 mM nicotinamide adenine dinucleotide (NADH) and 0.625 mM pyruvate in a total volume of 1 mL at room temperature. Absorption at 340 nm was monitored every 5 s within 5 min. For the determination of inhibitory activity of phenylspirodrimanes towards LDH, acetoxystachybotrydial acetate was added in a final concentration of 10 µM; 0.1% DMSO served as a control.

A427 cells [3] = experiment: IncuCyte live-cell imaging, cell growth (confluence); type: cell-based, human; settings: 48 h
A431 cells [4] = experiment: as above; type: cell-based, human; settings: 48 h
MTT cell viability assay = settings: human, cell viability (% of control)
[5] = test system: MCF7 NucLight Green cells; experiment: IncuCyte live-cell imaging, cell growth (confluence); type: cell-based, human; settings: 48 h
MCF7 cells [6] = test system: MCF7 cells
A427 cells [7] = experiment: MTT cell viability assay; settings: 48 h; for reduction of cell viability: 10 µM, data not shown
MCF7 cells [8] = experiment: MTT cell viability assay; settings: 100 µM, 48 h
A431 cells [9] = experiment: MTT cell viability assay; settings: 48 h; for reduction of cell viability: 10 µM, data not shown
in vitro = settings: human
MCF7 cells [10] = test system: MCF7 cells; parameters: method as in PMID 30965682; settings: other human CK2 inhibitor, compared with MCF7 value; cited from earlier work
[11] = read-out: % Inhibition at 10 µM
[12] = nine concentrations 0.001-100 µM, mean ± SD, three independent experiments, read-out: IC50
[13] = 10 µM compound, relative to DMSO control, read-out: % Inhibition at 10 µM

Chain of human recombinant CK2 holoenzyme (P68400 whole entry): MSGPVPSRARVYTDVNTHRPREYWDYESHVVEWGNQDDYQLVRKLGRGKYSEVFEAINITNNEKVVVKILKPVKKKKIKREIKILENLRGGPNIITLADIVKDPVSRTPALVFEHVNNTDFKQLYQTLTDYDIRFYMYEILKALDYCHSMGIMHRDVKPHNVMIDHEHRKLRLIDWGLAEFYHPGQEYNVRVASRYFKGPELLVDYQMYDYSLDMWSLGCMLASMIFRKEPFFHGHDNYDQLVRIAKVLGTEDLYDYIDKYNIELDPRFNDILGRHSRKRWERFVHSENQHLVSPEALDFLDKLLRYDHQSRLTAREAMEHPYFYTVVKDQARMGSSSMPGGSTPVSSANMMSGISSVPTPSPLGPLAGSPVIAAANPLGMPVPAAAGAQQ
Chain of human recombinant CK2 holoenzyme (P67870 whole entry partner): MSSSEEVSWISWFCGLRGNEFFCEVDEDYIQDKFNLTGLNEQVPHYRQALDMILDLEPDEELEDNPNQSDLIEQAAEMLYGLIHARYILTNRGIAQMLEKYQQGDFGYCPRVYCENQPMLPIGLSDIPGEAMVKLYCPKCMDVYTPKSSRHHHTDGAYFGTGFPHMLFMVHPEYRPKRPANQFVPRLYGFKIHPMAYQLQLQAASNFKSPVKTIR

C[C@@H]1CC[C@H]2C(C)(C)[C@H](O)CC[C@]2(C)[C@@]12Cc1c(O)cc3c(c1O2)CN(CCO)C3=O [Stachybotryamide]
inhibition at 10 µM [1, 11]: 21%

CC(=O)OC1CC2(C)C(CCC(C)C23Cc2c(O)cc(C=O)c(C=O)c2O3)C(C)(C)C1OC(C)=O (centres unmarked) [Acetoxystachybotrydial acetate]
proliferating cells relative to control ([2]; 1 µM): Less than 1%
EC50 ([2]; Homo sapiens, MCF7, 24 h, read-out: EC50 inhibition of cell proliferation): 0.39 µM
inhibition of LDH (LDH-5 from rabbit muscle): no inhibition
IC50 [1]: 1.86 µM
Ki [1]: 1.41 µM
mode of inhibition [1]: ATP competitive mode of inhibition
cell growth (confluence) (A427 cells [3]; 1 µM): strongly impaired
cell growth (confluence) (A431 cells [4]; 1 µM): completely blocked
viability at 48 h, 1 µM (MTT cell viability assay; 1 µM): 14%
viability at 48 h, 100 µM (MTT cell viability assay; 100 µM): 12%
cell growth (confluence) ([5]; 1 µM): completely blocked
total number of cells (phase contrast images) ([5]; 1 µM, compared with 1% DMSO control): strongly reduced

C[C@@H]1CC[C@H]2C(C)(C)[C@H](O)CC[C@]2(C)[C@@]12Cc1c(O)cc(C=O)c(C=O)c1O2 [Stachybotrydial]
IC50 [1, 12]: 4.43 µM

CC(=O)O[C@@H]1CC[C@@]2(C)[C@@H](CC[C@@H](C)[C@]23Cc2c(O)cc(CO)c(C=O)c2O3)C1(C)C [Stachybotrysin B]
% Inhibition at 10 µM [1]: 50%
IC50 [1, 12]: 13.4 µM
inhibition at 10 µM ([1]; read-out: % Inhibition at 10 µM, 10 µM compound, relative to DMSO control): > 50%

CC(=O)Oc1cc(O)c2c(c1C=O)O[C@@](C)(CC/C=C(\C)CCC=C(C)C)C=C2 [Stachybotrychromene B]
inhibition at 10 µM [1, 11]: 47%

CC(C)=CCC/C(C)=C/CC[C@@]1(C)C=Cc2c(O)cc(C)c(C=O)c2O1 [Stachybotrychromene A]
inhibition at 10 µM [1, 11]: 26%

C[C@@H]1CC[C@H]2C(C)(C)[C@H](O)CC[C@]2(C)[C@@]12Cc1c(O)cc(CO)c(C=O)c1O2 [L-671]
inhibition at 10 µM [1, 13]: 42%

CC(=O)O[C@@H]1[C@H](O)C[C@@]2(C)[C@@H](CC[C@@H](C)[C@]23Cc2c(O)cc(CO)c(C=O)c2O3)C1(C)C [Stachybotrysin C]
inhibition at 10 µM [1, 11]: 37%

CC(=O)OC1CCC2(C)C(CCC(C)C23Cc2c(O)cc(C=O)c(C=O)c2O3)C1(C)C (centres unmarked) [Stachybotrydial acetate]
cell viability (% of control) (MCF7 cells [6]; 1 µM): increased
IC50 [1, 12]: 0.69 µM
cell growth (confluence) (A427 cells [3]; 1 µM): no effect
cell growth (confluence) (A427 cells [3]; 100 µM): completely blocked
cell growth (confluence) (A431 cells [4]; 1 µM): no effect
cell growth (confluence) (A431 cells [4]; 100 µM): completely blocked
reduction of cell viability (A427 cells [7]): not significant
reduction of cell viability (by %) (A427 cells [7]; 100 µM): 82%
reduction of cell viability (by %) (MCF7 cells [8]): 86%
reduction of cell viability (A431 cells [9]): not significant
reduction of cell viability (by %) (A431 cells [9]; 100 µM): 93%
cell growth (confluence) ([5]; 1 µM): no effect
cell growth (confluence) ([5]; 100 µM): completely blocked

CC(=O)O[C@@H]1[C@H](OC(C)=O)C[C@@]2(C)[C@@H](CC[C@@H](C)[C@]23Cc2c(O)cc(CO)c(C=O)c2O3)C1(C)C [Stachybonoid D]
inhibition at 10 µM [1, 13]: 47%

CC(C)=CCCC(C)=CCCC1(C)C=Cc2c(O)cc(C=O)c(C=O)c2O1 (centres unmarked) [Stachybotrychromene C]
proliferating cells relative to control ([2]; 100 µM): negligible effects
cell viability (% of control) (MCF7 cells [6]; 100 µM): not decreased
IC50 [1, 12]: 0.32 µM
cell growth (confluence) (A427 cells [3]; 1 µM): no inhibition of growth
cell growth (confluence) (A427 cells [3]; 100 µM): no other cell line was affected
cell growth (confluence) (A431 cells [4]; 1 µM): no inhibition of growth
cell growth (confluence) (A431 cells [4]; 100 µM): no other cell line was affected
reduction of cell viability (by %) (A427 cells [7]; 1 µM): 32%
reduction of cell viability (A427 cells [7]): Almost no further reduction
increase of inhibitory effect on cell viability compared with 1 µM (A427 cells [7]; 100 µM): ~10%
viability at 48 h, 1 µM (in vitro): 155%
reduction of cell viability (by %) (A431 cells [9]; 1 µM): 27%
reduction of cell viability (A431 cells [9]): Almost no further reduction
increase of inhibitory effect on cell viability compared with 1 µM (A431 cells [9]; 100 µM): ~10%
cell growth (confluence) ([5]; 1 µM): no inhibition of growth
cell growth (confluence) ([5]; 100 µM): reduce the growth

COC1=CC(=O)c2c(c(O)c3oc4cc(OC)cc(C)c4c(=O)c3c2O)C1=O [bikaverin]
EC50 (MCF7 cells [10]): 1.97 µM

Cc1cc(O)c2c(c1)C(=O)c1cc(O)cc(O)c1C2=O [emodin, reference compound]
proliferating cells relative to control ([2]; 1 µM): no effect
proliferating cells relative to control ([2]; 10 µM): 77%
proliferating cells relative to control ([2]; 100 µM): 5%

CC(=O)O[C@@H]1CC[C@@]2(C)[C@@H](CC[C@@H](C)[C@]23Cc2c(O)cc4c(c2O3)CNC4=O)C1(C)C [Stachybotrylactam acetate]
inhibition at 10 µM [1, 11]: 44%

— PMC8347608, “Natural Compounds Isolated from Stachybotrys chartarum Are Potent Inhibitors of Human Protein Kinase CK2” (Molecules, 2021)
